# Legend:
# Staphylococcus aureus [1] = assay: Antibacterial activity against methicillin-resistant Staphylococcus aureus 2658 RCMB after 20 hrs by broth microdilution assay; format: functional
# Staphylococcus aureus [2] = assay: Antibacterial activity against vancomycin-resistant Staphylococcus aureus VRSA12 after 20 hrs by broth microdilution assay; format: functional; details: VRSA12, 20 h
# Staphylococcus aureus [3] = assay: Antibacterial activity against methicillin-resistant Staphylococcus aureus NRS386 after 20 hrs by broth microdilution assay; format: functional; details: NRS386, 20 h
# Streptococcus pneumoniae [4] = assay: Antibacterial activity against methicillin-resistant Streptococcus pneumoniae ATCC 700677 after 20 hrs by broth microdilution assay; format: functional; details: ATCC 700677, 20 h
# Streptococcus pneumoniae [5] = assay: Bactericidal activity against cephalosporin-resistant Streptococcus pneumoniae ATCC 51916 incubated for 20 hrs followed by re-plating on tryptic soy agar plates at 37 degC for 18 hrs by broth microdilution assay; format: functional
# Staphylococcus aureus [6] = assay: Bactericidal activity against methicillin-resistant Staphylococcus aureus NRS385 incubated for 20 hrs followed by re-plating on tryptic soy agar plates at 37 degC for 18 hrs by broth microdilution assay; format: functional
# Staphylococcus aureus [7] = assay: Antibacterial activity against vancomycin-resistant Staphylococcus aureus VRSA10 after 20 hrs by broth microdilution assay; format: functional; details: VRSA10, 20 h
# Listeria monocytogenes [8] = assay: Bactericidal activity against Listeria monocytogenes ATCC 19111 incubated for 20 hrs followed by re-plating on tryptic soy agar plates at 37 degC for 18 hrs by broth microdilution assay; format: functional
# Staphylococcus aureus [9] = assay: Bactericidal activity against vancomycin-resistant Staphylococcus aureus VRSA10 incubated for 20 hrs followed by re-plating on tryptic soy agar plates at 37 degC for 18 hrs by broth microdilution assay; format: functional
# Streptococcus pneumoniae [10] = assay: Bactericidal activity against methicillin-resistant Streptococcus pneumoniae ATCC 700677 incubated for 20 hrs followed by re-plating on tryptic soy agar plates at 37 degC for 18 hrs by broth microdilution assay; format: functional
# [11] = tested on: Staphylococcus epidermidis; assay: Bactericidal activity against methicillin-resistant Staphylococcus epidermidis NRS101 incubated for 20 hrs followed by re-plating on tryptic soy agar plates at 37 degC for 18 hrs by broth microdilution assay; format: functional
# Enterococcus faecalis [12] = assay: Bactericidal activity against vancomycin-resistant Enterococcus faecalis ATCC 51299 incubated for 20 hrs followed by re-plating on tryptic soy agar plates at 37 degC for 18 hrs by broth microdilution assay; format: functional
# Listeria monocytogenes [13] = assay: Antibacterial activity against Listeria monocytogenes ATCC 19111 after 20 hrs by broth microdilution assay; format: functional; details: ATCC 19111, 20 h
# Streptococcus pneumoniae [14] = assay: Antibacterial activity against cephalosporin-resistant Streptococcus pneumoniae ATCC 51916 after 20 hrs by broth microdilution assay; format: functional; details: ATCC 51916, 20 h
# Staphylococcus aureus [15] = assay: Bactericidal activity against methicillin-resistant Staphylococcus aureus NRS386 incubated for 20 hrs followed by re-plating on tryptic soy agar plates at 37 degC for 18 hrs by broth microdilution assay; format: functional
# Staphylococcus aureus [16] = assay: Bactericidal activity against linezolid-resistant Staphylococcus aureus NRS119 incubated for 20 hrs followed by re-plating on tryptic soy agar plates at 37 degC for 18 hrs by broth microdilution assay; format: functional
# Staphylococcus aureus [17] = assay: Antibacterial activity against methicillin-resistant Staphylococcus aureus after 20 hrs by broth microdilution assay; format: functional
# Enterococcus faecalis [18] = assay: Antibacterial activity against vancomycin-resistant Enterococcus faecalis ATCC 51299 after 20 hrs by broth microdilution assay; format: functional; details: ATCC 51299, 20 h
# Staphylococcus aureus [19] = assay: Bactericidal activity against Staphylococcus aureus USA400 NRS123 incubated for 20 hrs followed by re-plating on tryptic soy agar plates at 37 degC for 18 hrs by broth microdilution assay; format: functional
# Staphylococcus aureus [20] = assay: Bactericidal activity against vancomycin-resistant Staphylococcus aureus VRSA12 incubated for 20 hrs followed by re-plating on tryptic soy agar plates at 37 degC for 18 hrs by broth microdilution assay; format: functional
# Staphylococcus aureus [21] = assay: Antibacterial activity against methicillin-resistant Staphylococcus aureus NRS385 after 20 hrs by broth microdilution assay; format: functional; details: NRS385, 20 h
# [22] = tested on: Staphylococcus epidermidis; assay: Antibacterial activity against methicillin-resistant Staphylococcus epidermidis NRS101 after 20 hrs by broth microdilution assay; format: functional; details: NRS101, 20 h
# Staphylococcus aureus [23] = assay: Bactericidal activity against Staphylococcus aureus USA300 NRS384 incubated for 20 hrs followed by re-plating on tryptic soy agar plates at 37 degC for 18 hrs by broth microdilution assay; format: functional
# Enterococcus faecium [24] = assay: Bactericidal activity against vancomycin-resistant Enterococcus faecium ATCC 700221 incubated for 20 hrs followed by re-plating on tryptic soy agar plates at 37 degC for 18 hrs by broth microdilution assay; format: functional
# Staphylococcus aureus [25] = assay: Bactericidal activity against methicillin-sensitive Staphylococcus aureus NRS107 incubated for 20 hrs followed by re-plating on tryptic soy agar plates at 37 degC for 18 hrs by broth microdilution assay; format: functional
# Enterococcus faecium [26] = assay: Antibacterial activity against vancomycin-resistant Enterococcus faecium ATCC 700221 after 20 hrs by broth microdilution assay; format: functional; details: ATCC 700221, 20 h
# Staphylococcus aureus [27] = assay: Antibacterial activity against Staphylococcus aureus after 20 hrs by broth microdilution assay; format: functional
# Caco-2 = assay: Cytotoxicity against human Caco2 cells assessed as effect on cell viability up to 64 ug/ml after 2 hrs by MTS assay; format: cell-based; details: caco-2, 2 h
smiles,measurement,setting,value
CCCCCCCOc1ccc(-c2nc(C)c(-c3ccnc(N)n3)s2)cc1,MIC,Staphylococcus aureus [1],> 50 mg/L
CCCCCCCOc1ccc(-c2nc(C)c(-c3ccnc(NC(=N)NC)n3)s2)cc1,MIC,Staphylococcus aureus [1],> 50 mg/L
CCCCCCCOc1ccc(-c2nc(C)c(-c3ccnc(NN)n3)s2)cc1,MIC,Staphylococcus aureus [2],64 mg/L
same,MIC,Staphylococcus aureus [3],32 mg/L
same,MIC,Streptococcus pneumoniae [4],> 64 mg/L
same,MBC,Streptococcus pneumoniae [5],> 64 mg/L
same,MBC,Staphylococcus aureus [6],64 mg/L
same,MIC,Staphylococcus aureus [7],64 mg/L
same,MBC,Listeria monocytogenes [8],> 64 mg/L
same,MBC,Staphylococcus aureus [9],> 64 mg/L
same,MBC,Streptococcus pneumoniae [10],> 64 mg/L
same,MBC,[11],64 mg/L
same,MBC,Enterococcus faecalis [12],> 64 mg/L
same,MIC,Listeria monocytogenes [13],16 mg/L
same,MIC,Streptococcus pneumoniae [14],> 64 mg/L
same,MBC,Staphylococcus aureus [15],> 64 mg/L
same,MBC,Staphylococcus aureus [16],64 mg/L
same,MIC,Staphylococcus aureus [17],32 mg/L
same,MIC,Enterococcus faecalis [18],> 64 mg/L
same,MBC,Staphylococcus aureus [19],> 64 mg/L
same,MBC,Staphylococcus aureus [20],> 64 mg/L
same,MIC,Staphylococcus aureus [21],32 mg/L
same,MIC,[22],64 mg/L
same,MBC,Staphylococcus aureus [23],> 64 mg/L
same,MBC,Enterococcus faecium [24],> 64 mg/L
same,MBC,Staphylococcus aureus [25],> 64 mg/L
same,MIC,Staphylococcus aureus [1],3.12 mg/L
same,MIC,Enterococcus faecium [26],64 mg/L
same,MIC,Staphylococcus aureus [27],16 mg/L
CCCCCCCCOc1ccc(-c2nc(C)c(-c3ccnc(NC(=N)NC)n3)s2)cc1,MIC,Staphylococcus aureus [1],> 50 mg/L
CCCCCCCCOc1ccc(-c2nc(C)c(-c3ccnc(NN)n3)s2)cc1,MIC,Staphylococcus aureus [1],3.12 mg/L
CCCCCCCOc1ccc(-c2nc(C)c(-c3ccnc(NC(=N)N4CCOCC4)n3)s2)cc1,MIC,Staphylococcus aureus [1],6.25 mg/L
CCCCCCCCOc1ccc(-c2nc(C)c(-c3ccnc(NC(=N)N4CCOCC4)n3)s2)cc1,MIC,Staphylococcus aureus [1],6.25 mg/L
CCCCCCCCOc1ccc(-c2nc(C)c(-c3ccnc(NC(=N)N)n3)s2)cc1,MIC,Staphylococcus aureus [1],1.56 mg/L
CCCCCCCCOc1ccc(-c2nc(C)c(-c3ccnc(N)n3)s2)cc1,MIC,Staphylococcus aureus [1],> 50 mg/L
CN[C@H](CC(C)C)C(=O)N[C@H]1C(=O)N[C@@H](CC(N)=O)C(=O)N[C@H]2C(=O)N[C@H]3C(=O)N[C@H](C(=O)N[C@H](C(=O)O)c4cc(O)cc(O)c4-c4cc3ccc4O)[C@H](O)c3ccc(c(Cl)c3)Oc3cc2cc(c3O[C@@H]2O[C@H](CO)[C@@H](O)[C@H](O)[C@H]2O[C@H]2C[C@](C)(N)[C@H](O)[C@H](C)O2)Oc2ccc(cc2Cl)[C@H]1O [VANCOMYCIN],MIC,Staphylococcus aureus [2],> 64 mg/L
same,MIC,Streptococcus pneumoniae [4],2 mg/L
same,MBC,Staphylococcus aureus [6],1 mg/L
same,MIC,Staphylococcus aureus [7],> 64 mg/L
same,MBC,Staphylococcus aureus [9],> 64 mg/L
same,MBC,Enterococcus faecalis [12],64 mg/L
same,MIC,Listeria monocytogenes [13],1 mg/L
same,MIC,Streptococcus pneumoniae [14],2 mg/L
same,MBC,Staphylococcus aureus [15],1 mg/L
same,MBC,Staphylococcus aureus [16],1 mg/L
same,MIC,Enterococcus faecalis [18],16 mg/L
same,MBC,Staphylococcus aureus [19],1 mg/L
same,MBC,Staphylococcus aureus [20],> 64 mg/L
same,MBC,Staphylococcus aureus [23],1 mg/L
same,MBC,Enterococcus faecium [24],> 64 mg/L
same,MBC,Staphylococcus aureus [25],2 mg/L
same,MIC,Staphylococcus aureus [1],1.56 mg/L
same,MIC,Enterococcus faecium [26],> 64 mg/L
CCCCCCCOc1ccc(-c2nc(C)c(-c3ccnc(NC(=N)N)n3)s2)cc1,MIC,Staphylococcus aureus [1],1.56 mg/L
CCCCCCCCOc1ccc(-c2nc(C)c(-c3ccnc(NC)n3)s2)cc1,MIC,Staphylococcus aureus [1],> 50 mg/L
CCCCCCCCOc1ccc(-c2nc(C)c(-c3ccnc(NC(=N)N(C)C)n3)s2)cc1,MIC,Staphylococcus aureus [2],16 mg/L
same,MIC,Staphylococcus aureus [3],16 mg/L
same,MIC,Streptococcus pneumoniae [4],16 mg/L
same,MBC,Streptococcus pneumoniae [5],16 mg/L
same,MBC,Staphylococcus aureus [6],16 mg/L
same,MIC,Staphylococcus aureus [7],16 mg/L
same,MBC,Listeria monocytogenes [8],8 mg/L
same,Activity,Caco-2,Non-Toxic
same,MBC,Staphylococcus aureus [9],16 mg/L
same,MBC,Streptococcus pneumoniae [10],32 mg/L
same,MBC,[11],8 mg/L
same,MBC,Enterococcus faecalis [12],32 mg/L
same,MIC,Listeria monocytogenes [13],4 mg/L
same,MIC,Streptococcus pneumoniae [14],16 mg/L
same,MBC,Staphylococcus aureus [15],16 mg/L
same,MBC,Staphylococcus aureus [16],16 mg/L
same,MIC,Staphylococcus aureus [17],8 to 16 mg/L
same,MIC,Enterococcus faecalis [18],32 mg/L
same,MBC,Staphylococcus aureus [19],16 mg/L
same,MBC,Staphylococcus aureus [20],16 mg/L
same,MIC,Staphylococcus aureus [21],16 mg/L
same,MIC,[22],4 mg/L
same,MBC,Staphylococcus aureus [23],16 mg/L
same,MBC,Enterococcus faecium [24],8 mg/L
same,MBC,Staphylococcus aureus [25],8 mg/L
same,MIC,Staphylococcus aureus [1],1.56 mg/L
same,MIC,Enterococcus faecium [26],8 mg/L
same,MIC,Staphylococcus aureus [27],8 mg/L
CCCCCCCOc1ccc(-c2nc(C)c(-c3ccnc(N4CC(O)C4)n3)s2)cc1,MIC,Staphylococcus aureus [1],6.25 mg/L
CCCCCCCOc1ccc(-c2nc(C)c(-c3ccnc(NC)n3)s2)cc1,MIC,Staphylococcus aureus [1],> 50 mg/L
CCCCCCCCOc1ccc(-c2nc(C)c(-c3ccnc(N4CC(O)C4)n3)s2)cc1,MIC,Staphylococcus aureus [1],6.25 mg/L
CCCCCCCOc1ccc(-c2nc(C)c(-c3ccnc(NN4CCOCC4)n3)s2)cc1,MIC,Staphylococcus aureus [1],25 mg/L
